The values that follow come from patent US20190183961A1, “GLUTAMINE FOR PRESERVING, IMPROVING OR RESTORING KIDNEY FUNCTION” (Fresenius Kabi Deutschland GmbH, priority 2016, published 2019).

Molecules are shown by their SMILES. Like-named read-outs stand apart in the source and are kept apart here. Peptide text beside a SMILES is read from it.

In the data set the test system is 5/6 kidney nephrectomised rat model. The class given is in vivo. The settings on record: for incidence of chronic progressive nephropathy (animals affected/animals examined) / effect on incidence/occurrence of chronic progressive nephropathy (in words): 9 days; for incidence of chronic progressive nephropathy (animals affected/animals examined): 5/6 nephrectomised rats; for effect on incidence/occurrence of chronic progressive nephropathy (in words): continuous i.v. infusion, all doses, versus nephrectomised control; for changes in blood levels of biomarkers for kidney and liver injury / treatment-related clinical signs / tolerability of intravenous infusion: rat, in vivo. On the procedure: The effect of L-glutamine (administered in form of L-alanyl-L-glutamine; Dipeptiven™) following daily continuous intravenous infusion was examined in a 5/6 kidney nephrectomised rat model.
L-alanyl-L-glutamine was administered for 9 consecutive days. The effects attributable to L-glutamine (provided in form of alanyl-glutamine; Dipeptiven™) were determined by comparison to an L-alanine infusion.
To prevent protein overdose, the protein content of the animal food was adapted according to the L-alanyl-L-glutamine or L-alanine dose administered intravenously.
The study was conducted according to the following design:
Group 1 and 2 animals (control) received the vehicle (0.9% NaCl).
Groups 5 and 6 received Dipeptiven™ without any dilution, i.e. L-alanyl-L-glutamine in a concentration of 200 mg/ml.
Group 3 and 4 animals received diluted Dipeptiven™, i.e. L-alanyl-L-glutamine in a concentration of 13.33 and 80 mg/ml respectively.
Group 7 and 8 animals received L-alanine in a concentration of 32 and 80 mg/ml respectively.
All animals in groups 1 and 3 to 8 underwent a 5/6 nephrectomy. All animals in group 2 were “sham operated”, meaning the abdomen was opened and closed in the surgery, but the kidneys were not excised and remained in the body.
During the acclimatisation period, a polyurethane catheter was implanted into the posterior vena cava via the left femoral vein. Following implantation, the animals were maintained on continuous infusion with physiological saline prior to the start of treatment.
Morbidity/mortality checks were performed at least twice daily. Clinical observations were performed daily. A full clinical examination was performed daily. Individual body weights were recorded three times a week. Food consumption was measured three times a week for each cage of animals, including one measurement during the acclimatisation period. Clinical laboratory determinations were performed on selected animals on days −1 and on days 1 to 10. Animals were sampled for amino acid determination on days 1, 4, 7 and 10. Animals were fasted before blood sampling performed on day 10.
All animals were killed at the end of the treatment period (day 10) and necropsied. Organ/tissue samples were fixed and preserved at necropsy for all animals. Selected organs/tissues from all animals were examined histopathologically. In addition, selected organs/tissues from all animals were used for amino acid determination.

The mark [1] stands for this setting: 3.0 g/kg/day continuous i.v. infusion, 9% protein in diet.
Where [2] appears, read: groups 4 and 8: 3.0 g/kg/day, 9% protein in diet, control 60%.

Consider `C[C@H](N)C(=O)N[C@@H](CCC(N)=O)C(=O)O` [Ala-Gln, L-alanyl-L-glutamine] (H-Ala-Gln-OH), for which the “effect on incidence/occurrence of chronic progressive nephropathy (in words)” value (from here on “effect on incidence/occurrence”) is “decreased incidence of chronic progressive nephropathy”; the “changes in blood levels of biomarkers for kidney and liver injury” value is “No treatment-related”; the treatment-related clinical signs entry was “No treatment-related clinical signs”; the “tolerability of intravenous infusion” value is recorded as “overall well tolerated”. Further, the “incidence of chronic progressive nephropathy (animals affected/animals examined)” value (from here on “incidence … (animals affected/animals examined)”) (0.5 g/kg/day continuous i.v. infusion, 12% protein in diet) is 2/5. Under setting [1], the “incidence … (animals affected/animals examined)” value is 0/5. Moreover, the “incidence … (animals affected/animals examined)” value (7.5 g/kg/day continuous i.v. infusion, 4.5% protein in diet) is 0/5. Where the note is “7.5 g/kg/day continuous i.v. infusion, 12% protein in diet (amino acid overload)”, the “incidence … (animals affected/animals examined)” value is reported as 1/5. Further, the “incidence … (animals affected/animals examined)” value (7.5 g/kg/day continuous i.v. infusion, 12% protein in diet (amino acid overload), listed as L-alanyl-L-glutamine) was 2/5. Moreover, the “occurrence of chronic progressive nephropathy, percent of animals” value (shortened to “occurrence … percent of animals”) (group 3: 0.5 g/kg/day, 12% protein in diet, control 60%) turned out to be 40%. Moreover, the “occurrence … percent of animals” value (group 5: 7.5 g/kg/day, 4.5% protein in diet, control 60%) is recorded as 0%. The “occurrence … percent of animals” value under setting [2] worked out at 0%.

With `C[C@H](N)C(=O)O` [Ala, L-alanine], the “effect on incidence/occurrence” value is “did not”; the “changes in blood levels of biomarkers for kidney and liver injury” value was “No treatment-related”; the treatment-related clinical signs entry is “No treatment-related clinical signs”; the “tolerability of intravenous infusion” value was “overall well tolerated”. Where the note is “1.2 g/kg/day continuous i.v. infusion, 10.8% protein in diet”, the “incidence … (animals affected/animals examined)” value is 4/5. The “incidence … (animals affected/animals examined)” value under setting [1] was 3/5. Also, the “occurrence … percent of animals” value under setting [2] is listed as 60%.

For `NC(=O)CC[C@H](N)C(=O)O` [L-glutamine], the “effect on incidence/occurrence” value is reported as “reduces the occurrence of chronic progressive nephropathy in a dose-dependent manner”. Also, the “occurrence … percent of animals” value (group 6: 7.5 g/kg/day, 12% protein in diet (amino acid overload)) is reported as 20%.
